According to patent EP0678516B1, “Preparation of 2-bromo-5-(2-bromo-2-nitrovinyl)-furan and its use as microcide” (CENTRO DE BIOACTIVOS QUIMICOS DE LA UNIVERSIDAD CENTRAL DE …, priority 1994, dated 1995):
In brackets after ≈: the same amount, converted by molar mass.

Legend:
Type in all cases: cell-based
[1] = test system: Bacillus subtilis; assay: In vitro MIC (serial dilution)
Description: (§1) The antimicrobial sensitivity was first evaluated "in vitro" using the serial dilution method for bacteria and fungi. Other growth methods in agar cultures were included for other species. The liquid and solid mediums used were Mueller-Hinton, Tryptona Soya, Sabouraud Dextrosa, Sabouraud Maltose and other mediums in accordance with the cultural demands of the micro-organisms valued.
(§2) The temperature and incubation period was adjusted to conditions and characteristics of the micro-organisms used.
(§3) The Minimal Inhibitory Concentration (MIC) was calculated in terms of MIC50 and MIC90 in µg/ml.

[2] = test system: Candida albicans; assay: In vitro MIC (serial dilution)
Description: as §1, §2, §3

[3] = test system: Candida guilliermondi; assay: In vitro MIC (serial dilution)
Description: as §1, §2, §3

[4] = test system: Candida pseudotropicalis; assay: In vitro MIC (serial dilution); details: Kluyveromyces marxianus
Description: as §1, §2, §3

[5] = test system: Candida stellatoidea; assay: In vitro MIC (serial dilution); details: Candida albicans
Description: as §1, §2, §3

[6] = test system: Candida tropicalis; assay: In vitro MIC (serial dilution)
Description: as §1, §2, §3

[7] = test system: Candida zeyfanoide; assay: In vitro MIC (serial dilution)
Description: as §1, §2, §3

[8] = test system: Corynebacterium pyogenes; assay: In vitro MIC (serial dilution); details: Rhodococcus (subgen. Prescottella) equi
Description: as §1, §2, §3

[9] = test system: Enterobacter spp.; assay: In vitro MIC (serial dilution)
Description: as §1, §2, §3

[10] = test system: Epidermophyton floccasum; assay: In vitro MIC (serial dilution); details: only one value given
Description: as §1, §2, §3

[11] = test system: Escherichia coli; assay: In vitro MIC (serial dilution)
Description: as §1, §2, §3

[12] = test system: Fusarium sp.; assay: In vitro MIC (serial dilution); details: read-out: Minimal Inhibitory Concentration (MIC)
Description: as §1, §2, §3

[13] = test system: Haemophilus influenzae; assay: In vitro MIC (serial dilution)
Description: as §1, §2, §3

[14] = test system: Klebsiella spp. (including K. pneumoniae); assay: In vitro MIC (serial dilution)
Description: as §1, §2, §3

[15] = test system: Leptospira canicola; assay: In vitro MIC (serial dilution); details: Leptospira interrogans
Description: as §1, §2, §3

[16] = test system: Leptospira pomona; assay: In vitro MIC (serial dilution)
Description: as §1, §2, §3

[17] = test system: Listeria monocytogenes; assay: In vitro MIC (serial dilution)
Description: as §1, §2, §3

[18] = test system: Microsporum canis; assay: In vitro MIC (serial dilution)
Description: as §1, §2, §3

[19] = test system: Moracella bovis; assay: In vitro MIC (serial dilution)
Description: as §1, §2, §3

[20] = test system: Neisseria meningitidis; assay: In vitro MIC (serial dilution)
Description: as §1, §2, §3

[21] = test system: Pasteurella haemolytica; assay: In vitro MIC (serial dilution); details: Mannheimia haemolytica
Description: as §1, §2, §3

[22] = test system: Pasteurella multocida; assay: In vitro MIC (serial dilution)
Description: as §1, §2, §3

[23] = test system: Proteus rettgeri; assay: In vitro MIC (serial dilution); details: Providencia rettgeri
Description: as §1, §2, §3

[24] = test system: Proteus vulgaris; assay: In vitro MIC (serial dilution)
Description: as §1, §2, §3

[25] = test system: Pseudomonas aerguinosa; assay: In vitro MIC (serial dilution)
Description: as §1, §2, §3

[26] = test system: Pseudomonas maltophila; assay: In vitro MIC (serial dilution)
Description: as §1, §2, §3

[27] = test system: Salmonella choleraesuis; assay: In vitro MIC (serial dilution); details: Salmonella enterica
Description: as §1, §2, §3

[28] = test system: Salmonella dublin; assay: In vitro MIC (serial dilution); details: Salmonella enterica
Description: as §1, §2, §3

[29] = test system: Salmonella enteritidis; assay: In vitro MIC (serial dilution); details: Salmonella enterica
Description: as §1, §2, §3

[30] = test system: Salmonella thyphi; assay: In vitro MIC (serial dilution)
Description: as §1, §2, §3

[31] = test system: Sarcina lutea; assay: In vitro MIC (serial dilution); details: Micrococcus luteus
Description: as §1, §2, §3

[32] = test system: Serratia marcescens; assay: In vitro MIC (serial dilution)
Description: as §1, §2, §3

[33] = test system: Staphylococcus albus; assay: In vitro MIC (serial dilution)
Description: as §1, §2, §3

[34] = test system: Staphylococcus aureus; assay: In vitro MIC (serial dilution)
Description: as §1, §2, §3

[35] = test system: Streptococcus pyogenes; assay: In vitro MIC (serial dilution)
Description: as §1, §2, §3

[36] = test system: Trichophyton mentagrophytes; assay: In vitro MIC (serial dilution)
Description: as §1, §2, §3

[37] = test system: Trichophyton rubrum; assay: In vitro MIC (serial dilution)
Description: as §1, §2, §3

[38] = test system: Vibrio cholerae ser. Inabu; assay: In vitro MIC (serial dilution)
Description: as §1, §2, §3

[39] = test system: Mycoplasma bovigenitalium; assay: In vitro MIC; details: Mycoplasmopsis bovigenitalium, single value, MIC50 or MIC90 not stated, read-out: Minimal Inhibitory Concentration (MIC)
Description: as §1, §2, §3

O=[N+]([O-])C(Br)=Cc1ccc(Br)o1 [Product G-1, 2-bromo-5-(2-bromo-2-nitro-vinyl)-furan]
MIC50 [1]: 2.27 µg/mL (≈ 7.65 µM)
MIC90 [1]: 5.08 µg/mL (≈ 17.1 µM)
MIC50 [2]: 3.11 µg/mL (≈ 10.5 µM)
MIC90 [2]: 7.95 µg/mL (≈ 26.8 µM)
MIC50 [3]: 1.92 µg/mL (≈ 6.47 µM)
MIC90 [3]: 2.84 µg/mL (≈ 9.57 µM)
MIC50 [4]: 1.92 µg/mL (≈ 6.47 µM)
MIC90 [4]: 3.56 µg/mL (≈ 12 µM)
MIC50 [5]: 1.92 µg/mL (≈ 6.47 µM)
MIC90 [5]: 3.56 µg/mL (≈ 12 µM)
MIC50 [6]: 2.78 µg/mL (≈ 9.36 µM)
MIC90 [6]: 5.29 µg/mL (≈ 17.8 µM)
MIC50 [7]: 1.92 µg/mL (≈ 6.47 µM)
MIC90 [7]: 3.56 µg/mL (≈ 12 µM)
MIC50 [8]: 3.56 µg/mL (≈ 12 µM)
MIC90 [8]: 5.59 µg/mL (≈ 18.8 µM)
MIC50 [9]: 5.3 µg/mL (≈ 17.9 µM)
MIC90 [9]: 17.2 µg/mL (≈ 57.8 µM)
MIC50 [10]: 12.5 µg/mL (≈ 42.1 µM)
MIC50 [11]: 7.53 µg/mL (≈ 25.4 µM)
MIC90 [11]: 16 µg/mL (≈ 53.8 µM)
MIC [12]: 50 µg/mL (≈ 168 µM)
MIC50 [13]: 3.51 µg/mL (≈ 11.8 µM)
MIC90 [13]: 39.2 µg/mL (≈ 132 µM)
MIC50 [14]: 11 µg/mL (≈ 37 µM)
MIC90 [14]: 21.3 µg/mL (≈ 71.9 µM)
MIC50 [15]: 9.36 µg/mL (≈ 31.5 µM)
MIC90 [15]: 15.4 µg/mL (≈ 51.8 µM)
MIC50 [16]: 8.84 µg/mL (≈ 29.8 µM)
MIC90 [16]: 11.7 µg/mL (≈ 39.3 µM)
MIC50 [17]: 3.13 µg/mL (≈ 10.5 µM)
MIC90 [17]: 5.44 µg/mL (≈ 18.3 µM)
MIC50 [18]: 7.91 µg/mL (≈ 26.6 µM)
MIC90 [18]: 40.6 µg/mL (≈ 137 µM)
MIC50 [19]: 2.63 µg/mL (≈ 8.86 µM)
MIC90 [19]: 5.08 µg/mL (≈ 17.1 µM)
MIC50 [20]: 1.84 µg/mL (≈ 6.2 µM)
MIC90 [20]: 3.47 µg/mL (≈ 11.7 µM)
MIC50 [21]: 3.72 µg/mL (≈ 12.5 µM)
MIC90 [21]: 5.63 µg/mL (≈ 19 µM)
MIC50 [22]: 3.59 µg/mL (≈ 12.1 µM)
MIC90 [22]: 9.47 µg/mL (≈ 31.9 µM)
MIC50 [23]: 2.78 µg/mL (≈ 9.36 µM)
MIC90 [23]: 9.92 µg/mL (≈ 33.4 µM)
MIC50 [24]: 5.95 µg/mL (≈ 20 µM)
MIC90 [24]: 19.8 µg/mL (≈ 66.5 µM)
MIC50 [25]: 7.84 µg/mL (≈ 26.4 µM)
MIC90 [25]: 15 µg/mL (≈ 50.4 µM)
MIC50 [26]: 29.7 µg/mL (≈ 100 µM)
MIC90 [26]: 45.1 µg/mL (≈ 152 µM)
MIC50 [27]: 5.57 µg/mL (≈ 18.8 µM)
MIC90 [27]: 10.5 µg/mL (≈ 35.4 µM)
MIC50 [28]: 4.38 µg/mL (≈ 14.8 µM)
MIC90 [28]: 5.73 µg/mL (≈ 19.3 µM)
MIC50 [29]: 6.86 µg/mL (≈ 23.1 µM)
MIC90 [29]: 11.5 µg/mL (≈ 38.7 µM)
MIC50 [30]: 2.5 µg/mL (≈ 8.42 µM)
MIC90 [30]: 10 µg/mL (≈ 33.7 µM)
MIC50 [31]: 1.56 µg/mL (≈ 5.25 µM)
MIC90 [31]: 4.43 µg/mL (≈ 14.9 µM)
MIC50 [32]: 5.03 µg/mL (≈ 16.9 µM)
MIC90 [32]: 10.9 µg/mL (≈ 36.9 µM)
MIC50 [33]: 10.2 µg/mL (≈ 34.5 µM)
MIC90 [33]: 19.8 µg/mL (≈ 66.8 µM)
MIC50 [34]: 5.91 µg/mL (≈ 19.9 µM)
MIC90 [34]: 12.9 µg/mL (≈ 43.6 µM)
MIC50 [35]: 1.86 µg/mL (≈ 6.26 µM)
MIC90 [35]: 4.42 µg/mL (≈ 14.9 µM)
MIC90 [36]: 40.6 µg/mL (≈ 137 µM)
MIC50 ([36]; read-out: MIC50 values): 17.7 µg/mL (≈ 59.5 µM)
MIC50 [37]: 13.8 µg/mL (≈ 46.5 µM)
MIC90 [37]: 24 µg/mL (≈ 80.9 µM)
MIC50 ([38]; read-out: MIC50 values): 5.87 µg/mL (≈ 19.8 µM)
MIC90 ([38]; read-out: MIC90 values): 17.7 µg/mL (≈ 59.5 µM)
MIC [39]: 50 µg/mL (≈ 168 µM)
